According to BindingDB's records for doi:10.1016/j.bmcl.2003.09.076 (Eli Lilly, 2003):
pIC50, pKi: −log10 of the molar value.

Tests used:
[1] = Cytotoxic activity in human liver Huh-7 cells
[2] = Binding affinity towards Protease using PNA assay […]
[3] = Inhibitory activity against Protease using replicon assay […] at 50 uM concentration

pKi [2] | pIC50 [3] | Structure (SMILES) | pIC50 [1]
4.84 |  | CCCC(NC(=O)[C@@H]1[C@H]2CCC[C@H]2CN1C(=O)[C@@H](NC(=O)[C@H](O)C(C)C)C(C)C)C(=O)C(=O)NC1CC1 (stereo partly drawn) [(1S,3aR,6aS)-2-[(S)-2-((R)-2-Hydroxy-3-methyl-butyrylamino)-3-methyl-butyryl]-octahydro-cyclopenta[c]pyrrole-1-carboxylic acid (1-cyclopropylaminooxalyl-butyl)-amide] | < 4.00
5.74 | < 4.00 | CCCC(NC(=O)[C@@H]1[C@H]2CCC[C@H]2CN1C(=O)[C@@H](NC(=O)[C@H](O)C(C)C)C(C)C)C(=O)C(=O)Nc1ccccc1 (stereo partly drawn) [(1S,3aR,6aS)-2-[(S)-2-((R)-2-Hydroxy-3-methyl-butyrylamino)-3-methyl-butyryl]-octahydro-cyclopenta[c]pyrrole-1-carboxylic acid (1-phenylaminooxalyl-butyl)-amide] | 
4.78 |  | CCCC(NC(=O)[C@@H]1[C@H]2CCC(F)(F)[C@H]2CN1C(=O)[C@@H](NC(=O)[C@H](O)C(C)C)C(C)C)C(=O)C(=O)NC1CC1 (stereo partly drawn) [(1S,3aR,6aS)-4,4-Difluoro-2-[(S)-2-((R)-2-hydroxy-3-methyl-butyrylamino)-3-methyl-butyryl]-octahydro-cyclopenta[c]pyrrole-1-carboxylic acid (1-cyclopropylaminooxalyl-butyl)-amide] | 
5.68 |  | CCCC(NC(=O)[C@@H]1[C@H]2CCC(F)(F)[C@H]2CN1C(=O)[C@@H](NC(=O)OC(C)C)C(C)(C)C)C(=O)C(=O)N[C@@H](C)c1ccccc1 (stereo partly drawn) [((S)-1-{(1S,3aR,6aS)-4,4-Difluoro-1-[1-((S)-1-phenyl-ethylaminooxalyl)-butylcarbamoyl]-hexahydro-cyclopenta[c]pyrrole-2-carbonyl}-2,2-dimethyl-propyl)-carbamic acid isopropyl ester] | < 4.00
5.17 |  | CCCC(NC(=O)[C@@H]1[C@H]2CCC(F)(F)[C@H]2CN1C(=O)[C@@H](NC(=O)OC(C)C)C(C)C)C(=O)C(=O)N[C@@H](C)c1ccccc1 (stereo partly drawn) [((S)-1-{(1S,3aR,6aS)-4,4-Difluoro-1-[1-((S)-1-phenyl-ethylaminooxalyl)-butylcarbamoyl]-hexahydro-cyclopenta[c]pyrrole-2-carbonyl}-2-methyl-propyl)-carbamic acid isopropyl ester] | < 4.00
5.72 |  | CCCC(NC(=O)[C@@H]1[C@H]2CCC[C@H]2CN1C(=O)[C@@H](NC(=O)OC(C)C)C(C)C)C(=O)C(=O)N[C@@H](C)c1ccccc1 (stereo partly drawn) [((S)-2-Methyl-1-{(1S,3aR,6aS)-1-[1-((S)-1-phenyl-ethylaminooxalyl)-butylcarbamoyl]-hexahydro-cyclopenta[c]pyrrole-2-carbonyl}-propyl)-carbamic acid isopropyl ester] | < 4.00
6.09 |  | CCCC(NC(=O)[C@@H]1[C@H]2CCC[C@H]2CN1C(=O)[C@@H](NC(=O)OC(C)C)C(C)(C)C)C(=O)C(=O)Nc1ccccc1 (stereo partly drawn) [{(S)-2,2-Dimethyl-1-[(1S,3aR,6aS)-1-(1-phenylaminooxalyl-butylcarbamoyl)-hexahydro-cyclopenta[c]pyrrole-2-carbonyl]-propyl}-carbamic acid isopropyl ester] | 
